The record followed here is patent publication US20230414605A1, “Method of Treating Cancer Using FABP5 Inhibitors” (Aurigene Oncology Limited, priority 2020, published 2023).

Common to all, as to format: cell-based
In assay [1] the test system is OCI-LY10. In words: Anti proliferative activity in haematological cancer cell lines (CellTiter Glo), OCI-LY10. Conditions: Homo sapiens, OCI-LY10, ABC-DLBCL, 72 hours incubation. The method, then:
(§1) After 24 hours, selected compound of the present invention was added to cells from 10 mM stocks made in DMSO (Sigma Cat no. D2650). CTG reading was taken on the day of compound addition which was labelled as Day 0 reading. Each concentration of compound was tested in triplicate with DMSO concentration not exceeding a final percentage of 0.1 in the cells. After 3 days (72 hours) of incubation assay terminated using 100 μl of CellTiter Glo® reagent (Promega, Cat. no G7572). CellTiter Glo® Luminescent reagent determines the number of viable cells based on quantitation of ATP present which is an indicator of cell number and metabolically activity. Luminescence readings were taken in Victor-3 instrument. The data was analysed using graph pad prism software. Positive control (100% survival)=Cells in complete media with […]; Negative control/blank (0% survival)=Media alone containing 0.1% DMSO.

Assay [2] concerns TMD8* (wt btk). The assay is described as follows: Anti proliferative activity in haematological cancer cell lines (CellTiter Glo), TMD8. Conditions: Homo sapiens, ABC-DLBCL, 72 hours incubation. The method, then: as §1
(In general: ATP-based viability assays read luminescence as a measure of living cells.)

Assay [3] has as its system OCI-LY3 cells. In words: Anti proliferative activity in haematological cancer cell lines (CellTiter Glo), OCI-LY3. On the procedure:
as §1

For assay [4], the system named is HBL-1. In words: Anti proliferative activity in haematological cancer cell lines (CellTiter Glo), HBL-1. Conditions: HBL1, HBL-1, ABC-DLBCL, 72 hours incubation. The method, then: as §1
The test system of assay [5] is CUTLL-1. In words: Anti proliferative activity in haematological cancer cell lines (CellTiter Glo), CUTLL-1. The method, then: as §1
Assay [6] relates to CCRF-CEM. The assay is described as follows: Anti proliferative activity in haematological cancer cell lines (CellTiter Glo), CCRF-CEM. The method, then: as §1
Assay [7] has as its system Pfeiffer. The assay is described as follows: Anti proliferative activity in haematological cancer cell lines (CellTiter Glo), Pfeiffer. Particulars: Homo sapiens, GCB-DLBCL, 72 hours incubation. The method, then:
as §1

Assay [8] has as its system H929. In words: Anti proliferative activity in haematological cancer cell lines (CellTiter Glo), H929. The method, then: as §1
Assay [9] deals with DOHH-2. In words: Anti proliferative activity in haematological cancer cell lines (CellTiter Glo), DOHH-2. Conditions: Homo sapiens, DOHH-2, Follicular lymphoma, 72 hours incubation. On the procedure: as §1

A word on the IC50: it is the concentration that gives 50% inhibition. Lower therefore signals greater potency. Turning to `C=CC(=O)N1CCN(C(=O)NC2(C#Cc3ccc(Cl)c(Cl)c3)CC2)CC1` [Cpd 23], the IC50 in assay [1] was determined as 10 nM; in assay [2] it was 10 nM; in assay [3] (Homo sapiens, OCI-LY3, ABC-DLBCL, 72 hours incubation, CellTiter Glo) it was 20 nM; in assay [4] it was 350 nM; in assay [5] (CUTLL1, CUTLL-1, T-cell acute lymphoblastic leukemia, 72 hours incubation, CellTiter Glo), 50 nM; in assay [6] (Homo sapiens, CCRF-CEM, T-cell acute lymphoblastic leukemia, 72 hours incubation, CellTiter Glo), 280 nM. Further, the half-maximal inhibitory concentration (IC50) in [7] stood at 870 nM; in assay [8] (Homo sapiens, NCI-H929, H929, Multiple myeloma, 72 hours incubation, CellTiter Glo), 50 nM; in [9] it was 20 nM. For the same compound, the “anti-proliferative activity (in words)” value is “potent anti-proliferative activity” in assay [3] (OCI-LY3 (ABC-DLBCL), activating mutation in CARD11); “potent anti-proliferative activity” in assay [5] (CUTLL-1 (T-cell acute lymphoblastic leukemia)); “potent anti-proliferative activity” in assay [6] (CCRF-CEM (T-cell acute lymphoblastic leukemia)); “potent anti-proliferative activity” in assay [8] (H929 (multiple myeloma)).
